Assay results published in US12529066B2, “Plants having increased tolerance to herbicides” (BASF AGRO B.V., priority 2012, dated 2026).

Key:
[1] = system: Chlamydomonas reinhardtii; assay: Dose-response curves of Chlamydomonas reinhardtii wild-type and mutagenized cells (strain 17); conditions: mutagenized cells (strain 17) versus wild-type cells
[2] = system: Chlamydomonas reinhardtii; assay: Selection of Chlamydomonas reinhardtii strains on solid medium containing herbicide; format: cell-based; conditions: solid medium containing 1×10^−7 M

C#CCN1C(=O)C(F)(F)Oc2cc(F)c(-n3c(=O)n(C)c(=S)n(C)c3=O)cc21 [I.a.35]
IC50 of strain 17 compared to Wild-type cells [1]: much lower IC50 | growth of resistant mutagenized cells on solid medium ([2]; resistant cells (colonies 31 and 32)): form colonies | growth of susceptible mutagenized cells on solid medium ([2]; susceptible cells): do not grow
